Reference: ChEMBL document CHEMBL1153126, “Substituted tetrahydro-beta-carbolines as potential agents for the treatment of human papillomavirus infection” (Bioorg Med Chem Lett, 2010)

Tests used:
[1] = tested on: Human papillomavirus type 16; assay: Antiviral activity against Human papillomavirus - 16 infected in human W12-20850 cells by hybrid capture method; assay type: functional, organism-based; conditions: Human papillomavirus 16, W12-20850
[2] = Cytotoxicity against HFF cells; assay type: cell-based; conditions: human
[3] = Therapeutic index, CC50 for HFF cells to IC50 for Human papillomavirus - 16; assay type: cell-based; conditions: read-out: TI
[4] = Oral bioavailability in mouse at 5 mg/kg; assay type: ADME, organism-based; conditions: in vivo
[5] = Clearance in rat at 1 mg/kg, iv; assay type: ADME, organism-based; set-up: dose 1 mg/kg, route intravenous; conditions: in vivo
[6] = Half life in rat at 1 mg/kg, iv; assay type: ADME, organism-based; set-up: dose 1 mg/kg, route intravenous; conditions: in vivo

Structure (SMILES)	IC50 [1] [µM]	CC50 [2] [µM]	selectivity ratio [3]	bioavailability [4] [%]	clearance [5] [mL/min/kg]	half-life [6] [h]
Cc1ccc([C@@H]2c3[nH]c4ccc(Cl)cc4c3CCN2C(=O)CCc2ccccc2)cc1	7.7	> 100				
O=C(OCC1c2[nH]c3ccccc3c2CCN1C(=O)CCc1ccccc1)N1CCCC1 (stereo unspecified)	> 100	> 100				
Cc1ccc(C2c3[nH]c4ccccc4c3CCN2C(=O)C#Cc2ccccc2)cc1 (stereo unspecified)	20	> 100				
Cc1ccc(C2c3[nH]c4ccccc4c3CCN2C(=O)/C=C/c2ccccc2)cc1 (stereo unspecified)	2.3	> 100				
Cc1ccc(C2c3[nH]c4ccccc4c3CCN2C(=O)CCc2cccnc2)cc1 (stereo unspecified)	18	94				
O=C(CCc1ccccc1)N1CCc2c([nH]c3ccccc23)C1COc1ccccc1 (stereo unspecified)	72	> 100				
COC(=O)C1c2[nH]c3ccccc3c2CCN1C(=O)CCc1ccccc1 (stereo unspecified)	20	> 100				
Cc1ccc(C2c3[nH]c4ccccc4c3CCN2C(=O)CCN(C)C)cc1 (stereo unspecified)	15	40				
Cc1ccc(C2c3[nH]c4c(C)cccc4c3CCN2C(=O)CCc2ccccc2)cc1 (stereo unspecified)	2.2	> 100	> 100			
O=C(C1c2[nH]c3ccccc3c2CCN1C(=O)CCc1ccccc1)N1CCCC1 (stereo unspecified)	> 100	> 100				
CC(C)C[C@@H]1c2[nH]c3ccc(Cl)cc3c2CCN1C(=O)CCc1ccccc1	0.88	> 100				
Cc1ccc(C2c3[nH]c4cc(F)ccc4c3CCN2C(=O)CCc2ccccc2)cc1 (stereo unspecified)	1.7	> 100	> 100			
O=C(CCc1ccccc1)N1CCc2c([nH]c3ccccc23)C1c1cccnc1 (stereo unspecified)	> 100	> 100				
O=C(CCc1ccccc1)N1CCc2c([nH]c3ccccc23)C1CN1CCCC1 (stereo unspecified)		16				
Cc1ccc([C@H]2c3[nH]c4ccc(Cl)cc4c3CCN2C(=O)CCc2ccccc2)cc1	0.023	> 100		73	3.6	6.2
Cc1ccc(C2c3[nH]c4ccccc4c3CCN2S(C)(=O)=O)cc1 (stereo unspecified)	23	> 100				
COc1ccc2[nH]c3c(c2c1)CCN(C(=O)CCc1ccccc1)C3c1ccc(C)cc1 (stereo unspecified)	0.57	> 100	> 100			

Structure (SMILES)	IC50 [1] [µM]	CC50 [2] [µM]	selectivity ratio [3]	bioavailability [4] [%]	clearance [5] [mL/min/kg]	half-life [6] [h]
Cc1ccc(C2c3[nH]c4ccc(Cl)cc4c3CCN2C(=O)CCc2ccccc2)cc1 (stereo unspecified)	0.062	> 100	> 100			
Cc1ccc(C2c3[nH]c4ccc(C)cc4c3CCN2C(=O)CCc2ccccc2)cc1 (stereo unspecified)	0.35	> 100	> 100			
COc1ccc(S(=O)(=O)N2CCc3c([nH]c4ccccc34)C2c2ccc(C)cc2)cc1 (stereo unspecified)	66	> 100				
Cc1ccc(C2c3[nH]c4ccccc4c3CCN2Cc2ccccc2)cc1 (stereo unspecified)	5.8	94				
Cc1ccc(C2c3[nH]c4ccccc4c3CCN2C(=O)Oc2cccc3ccccc23)cc1 (stereo unspecified)	23	> 100				
CC(C)CC1c2[nH]c3ccccc3c2CCN1C(=O)CCc1ccccc1 (stereo unspecified)	0.33	22				
COc1ccc2c3c([nH]c2c1)C(c1ccc(C)cc1)N(C(=O)CCc1ccccc1)CC3 (stereo unspecified)	5.8	> 100	> 100			
Cc1ccc(C2c3[nH]c4ccc(F)cc4c3CCN2C(=O)CCc2ccccc2)cc1 (stereo unspecified)	0.44	> 100	> 100			
Cc1ccc(C2c3[nH]c4ccccc4c3CCN2C(=O)OCc2ccccc2)cc1 (stereo unspecified)	0.9	> 100				
O=C(CCc1ccccc1)N1CCc2c([nH]c3ccccc23)C1COCc1ccccc1 (stereo unspecified)	7.3	> 100				
Cc1ccc(C2c3[nH]c4ccccc4c3CCN2CC(C)C)cc1 (stereo unspecified)	25	50				
O=C(CCc1ccccc1)N1CCc2c([nH]c3ccccc23)C1CCc1ccccc1 (stereo unspecified)	2.7	> 100				
Cc1ccc(C2c3[nH]c4ccccc4c3CCN2C(=O)CCc2ccccc2)cc1 (stereo unspecified)	1.3	> 100	100			
COC(=O)N1CCc2c([nH]c3ccccc23)C1c1ccc(C)cc1 (stereo unspecified)	1.7	31				
CC(C)C[C@H]1c2[nH]c3ccc(Cl)cc3c2CCN1C(=O)CCc1ccccc1	0.018	> 100				
O=C(CCc1ccccc1)N1CCc2c([nH]c3ccccc23)C1c1ccccc1 (stereo unspecified)	1.2	> 100				
